# According to publication PMC4552634, “A New Set of Chemical Starting Points with Plasmodium falciparum Transmission-Blocking Potential for Antimalarial Drug Discovery” (PLoS ONE, 2015):
# pIC50: −log10 of the molar value. Read-outs that look alike come from different tables or passages of the source.
# Key:
# [1] = test system: luciferase reaction (BacTiter-Glo); assay: Interference assay (inhibition of the BacTiter-Glo luciferase reaction); type: biochemical; parameters: concentration or dose not given beside the values; conditions: ATP interference assay
# Procedure: To discard possible false-positive results, we performed an interference assay in parallel. […] […]. The ATP solution was made by dissolving ATP powder (ATP standard from the ATPlite 1 step assay kit, reference 6016731, Perkin Elmer) in culture medium. The positive control used was the Luciferase Inhibitor I Calbiochem (Merck, 119113) at 100 μM.
# [2] = test system: P. falciparum stage V gametocytes; assay: Gametocytocidal ATP bioluminescence assay (single point 5 μM and 1 μM, dose-response); type: cell-based, Plasmodium falciparum; conditions: for Ratio IC50 HepG2/IC50 P. falciparum: IC50 HepG2 divided by IC50 P. falciparum gametocytes; for IC90 / IC50 / pIC50: Plasmodium falciparum; for IC90: ATP assay, Fig 7, read-out: IC90 against gametocytes; for IC50: P. falciparum gametocytes, average, read-out: IC50 Pf Gametocytes average, IC50 (µM) average; for pIC50: sexual stages (gametocytes), dose-response, read-out: IC50 sexual
# Procedure: Purified stage IV-V gametocytes were obtained as previously described [10]. Single point ATP bioluminescence assay and dose–response of positive hits was determined in accordance with the previously published protocol [10].
# [3] = test system: mature P. falciparum NF54 gametocytes (male gametocyte exflagellation); assay: Exflagellation assay; type: cell-based, Plasmodium falciparum; conditions: for % Exflagellation inh. at the IC90: 48 h, concentration = IC90, Fig 7; for % Inhibition exflagellation: 48 h post-treatment at the IC90 of the ATP assay, normalized to control, Fig 6
# Procedure: The exflagellation assay was performed as described by Delves et al., with some modifications. Briefly, 200 μL samples of mature P. falciparum NF54 gametocytes culture in the presence of the corresponding test compound were incubated at 37°C for 48 h in an atmosphere of 5% CO2, 5% O2, 90% N2 in 1.5 mL microfuge tubes. After the incubation period, cells were settled down and medium was carefully removed. The cell pellets were resuspended in 15 μl of complete ookinete medium (RPMI medium with 25 mM HEPES, 50 mg/L hypoxanthine, 2 g/L sodium bicarbonate, 100 μM xanthurenic acid, 20% human serum) pre-warmed at 37°C. Once parasites were resuspended in ookinete medium, they were introduced in a chamber of a FastRead disposable hemocytometer slide and placed on a horizontal surface at room temperature (21°C), to allow cells to homogeneously settle, forming a tight monolayer.
# [4] = Cytotoxicity in HepG2 cells (intracellular ATP, ATPlite, 48 h); type: cell-based, human; conditions: human, HepG2 cells
# HepG2 cells = assay: as above; type: cell-based, human; conditions: IC50 HepG2 divided by IC50 P. falciparum gametocytes
# [5] = test system: P. falciparum asexual stages; conditions: cited from earlier work; for pIC50: asexual stages, read-out: IC50 asexual
# [6] = test system: P. falciparum NF54 gametocytes fed to An. stephensi mosquitoes; assay: Standard membrane feeding assay (SMFA); type: in vivo, Plasmodium falciparum; conditions: for Infection Prevalence (%): An. stephensi fed gametocytes treated 48 h at the IC90, Fig 6, one of two independent experiments, control 94%; for % Prevalence of infection / % Reduction oocysts SMFA / Block in Transmission (%) / Reduction in Oocyst (%): gametocytes treated 48 h at the IC90; for % Prevalence of infection / % Reduction oocysts SMFA: Fig 7; for Block in Transmission (%) / Reduction in Oocyst (%): normalized to DMSO control, Fig 6; for Reduction in Oocyst (%): mean oocyst intensity
# Procedure: Gametocyte cultures of the P. falciparum NF54 strain, kindly provided by Robert Sinden (Imperial College London), were induced at 0.5% asexual parasitemia and 4% hematocrit (RBCs from the Spanish Red Cross) at 40 mL final volume in T75 flasks. Gametocyte production media comprised RPMI 1640 (Sigma, #R5886), 30 mM bicarbonate (Sigma-Aldrich, #S5761) and 5 mM hypoxanthine (Gibco, #11067–030). Media were made complete with 5% human serum A^+ (Interstate Blood Bank, USA) and 5% AlbuMAX II (Gibco, #11021–037). Cultures were maintained in a gassed incubator at 37°C with 5% CO2, 5% O2, 90% N2 for 14–17 days post-induction, with daily medium replacement without the addition of fresh RBCs. Percentages of mature gametocytes were assessed by microscopic counts (Leica, DM2000) of Giemsa-stained thin blood smears, and functional microgametocytes were assessed for exflagellation activity at room temperature. To test exflagellation, mature gametocyte cultures were centrifuged at 1800 rpm for one minute. The infected RBC pellet was gently mixed with an equal volume of pre-warmed human serum and introduced onto a slide with a coverslip, followed by incubation at room temperature for 10–15 min. The average exflagellation centers per field at 10X magnification was determined by the exflagellation assay described above. Gametocyte counts and exflagellation assays were performed both before and after gametocyte drug treatment (at the time of SMFA).
# Two days before gametocyte treatment with compound, spent media was removed and fresh Gametocyte Treatment Medium consisting of RPMI1640 with L-glutamine and 25 mM HEPES (Gibco, #13018–031), 10 mM glucose (Sigma-Aldrich, #G8270), 20 mM bicarbonate (Sigma-Aldrich, #S5761) and 5 mM hypoxanthine (Gibco, #11067) was added. Media were made complete with 10% of human A^+ serum (Interstate Blood Bank). Five ml of mature gametocyte culture at day 15 post-induction was transferred into each well of a pre-warmed 6-well plate. The selected TCAMS compounds were prepared fresh as a stock solution of 10 mM in 100% of DMSO and added to the mature gametocytes at the concentrations described in Fig 7. Gametocytes were exposed to the compound for a total duration of 48 h. At 24 h post-drug exposure, a fixed volume (3 mL) of spent medium was removed and fresh medium was re-added, accompanied by compound replenishment to obtain the required final concentration. Untreated gametocytes with the same final concentration of DMSO (0.1%) as in treated gametocytes were processed in parallel.
# On the day of the feed, cultures were centrifuged at 2500 g for 3 min at 37°C, diluted 1:1 with 100% packed cell volume of fresh RBCs, and finally formulated as artificial mosquito blood meals at 50% hematocrit with pre-warmed human serum. All steps were performed at 37°C. Prepared blood meals were fed in duplicate to 4–6 days old female An. stephensi mosquitoes for 30–40 min via Parafilm membrane attached to glass feeders (Fisher Scientific, #12831283) connected to a 37°C circulating water bath. Fed mosquitoes were maintained in an incubator at 27°C and 75% relative humidity with 12 h light/dark cycles. At 7–8 days post-feeding, mosquitoes with fully developed ovaries were dissected for midguts (Leica, M80) and incubated in 0.2% mercurochrome solution in distilled water for 10–15 min. The total number of oocysts in individual midguts was counted using a light microscope (Leica, DM2000) under a 10X objective (100X magnification). Both infection prevalence (percentage of mosquitoes with one or more oocysts) and mean oocyst intensity of infection were defined in each treatment. The percentage block in transmission and the percentage reduction in mean oocyst intensity were calculated after normalizing to the Control DMSO-treated sample.
# [7] = HepG2, 48 h exposure, intracellular ATP, read-out: IC50 (μM) Cytotoxicity HepG2
# [8] = IC50 per ratio column head, unit inferred, read-out: Cytotoxicity in HepG2
# [9] = P. falciparum asexual stages, TCAMS data, read-out: IC50 (µM) Pf asexual stages
SMILES,% Control luminiscence [1],Ratio IC50 HepG2/IC50 P. falciparum [2],IC90 [2],IC50 [2],pIC50 [2],% Exflagellation inh. at the IC90 [3],"IC50 at 48 h [4, 7]","IC50 at 48 h [4, 8]",Ratio IC50 HepG2/IC50 P. falciparum (HepG2 cells),"IC50 [5, 9]",pIC50 ([5]; TCAMS data),Infection Prevalence (%) [6],% Prevalence of infection [6],% Reduction oocysts SMFA [6],Block in Transmission (%) [6],Reduction in Oocyst (%) [6],% Inhibition exflagellation [3],"IC50 ([5]; as previously determined for TCAMS, read-out: IC50 (μM) Pf Asexual stages)"
N=C(NCCCc1ccccc1)c1cccc(C(=N)NCCCc2ccccc2)n1 [TCMDC-137453],100%,41,2000 nM,0.31 µM,6.50,97.3%,13 µM,12.8 µM,41,1.38 µM,5.86,5%,5%,100%,95%,100%,,
COc1cccc(NC(=O)[C@H](C(C)C)n2c(=O)[nH]c3ccccc3c2=O)c1 [TCMDC-125133],100%,>93,2500 nM,0.54 µM,6.27,88%,> 25 µM,> 50 µM,>93,0.27 µM,6.58,3%,3%,100%,97%,100%,88.00%,
Cc1c(Cl)cccc1NC(=S)NN=Cc1ccccn1 [TCMDC-125487],,,2000 nM,0.27 µM,,98.3%,,> 25 µM,,0.6 µM,6.22,0%,1%,100%,100%,100%,98.30%,
Cc1[nH]c2ccccc2c1C(=O)C(C)Sc1nnc(-c2ccccc2Br)[nH]1 (centres unmarked) [TCMDC-125114],99%,74,2500 nM,0.67 µM,,97%,> 25 µM,49.3 µM,74,0.0348 µM,7.46,2%,2%,100%,98%,100%,97.00%,0.03 µM
CNC(=S)NN=C(C)c1ccccn1 [TCMDC-123475],,,10000 nM,1.17 µM,,97.7%,,> 25 µM,,0.27 µM,6.57,0%,0%,100%,100%,100%,97.7%,
CCC1CN2CCc3cc(OC)c(OC)cc3C2CC1CC1NCCc2cc(OC)c(OC)cc21 (centres unmarked) [TCMDC-125849],,,2000 nM,,6.93,99.2%,18 µM,17.7 µM,,0.14 µM,6.84,3%,3%,100%,97%,100%,,
